Data as given in US20230143612A1 (Arbutus Biopharma Corporation, priority 2020, published 2023).

biological target: PD-L1 His protein / PD-1 Fc protein (Homo sapiens, UniProt Q9NZQ7); assay: HTRF Assay (PD-1/PD-L1 interaction); type: binding; details: PD-L1 His 6 nM, PD-1 Fc 6 nM
In short: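 Compounds tested from 20 μM down to 0.001 μM (3-fold) against 6 nM PD-L1 His and 6 nM PD-1 Fc, 15 min room temperature incubation. Detection after 1 h at room temperature with Tb cryptate anti-6HIS and XL665 anti-human IgG reagents (mixture at 0.35 nM and 6.7 nM), HTRF signal.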

Sequence of PD-L1 His protein / PD-1 Fc protein (Q9NZQ7 19-238 limits assumed): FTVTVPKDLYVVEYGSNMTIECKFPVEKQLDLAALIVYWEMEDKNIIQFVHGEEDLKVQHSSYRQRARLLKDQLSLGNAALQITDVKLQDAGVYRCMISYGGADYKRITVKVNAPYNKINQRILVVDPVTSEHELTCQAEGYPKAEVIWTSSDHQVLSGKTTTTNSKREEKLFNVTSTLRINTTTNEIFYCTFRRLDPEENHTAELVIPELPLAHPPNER

| Structure (SMILES) | IC50 |
| --- | --- |
| Cc1c(OCc2cc(OCc3cncc(C#N)c3)c(CNC[C@@H]3CCC(=O)N3)cc2Cl)cccc1-c1cccc(-c2ccc3c(c2)C(=O)N(C)CC(=O)N3CCNC[C@@H]2CCC(=O)N2)c1C [Example 27, 5-((4-Chloro-5-(((2,2′-dimethyl-3′-(4-methyl-2,5-dioxo-1-(2-((((S)-5-oxopyrrolidin-2-yl)methyl)amino)ethyl)-2,3,4,5-tetrahydro-1H-benzo[e][1,4]diazepin-7-yl)-[1,1′-biphenyl]-3-yl)oxy)methyl)-2-(((((S)-5-oxopyrrolidin-2-yl)methyl)amino)methyl)phenoxy)methyl)nicotinonitrile] | 9.9 nM |
| Cc1c(COc2cc(OCc3cncc(C#N)c3)c(CNC[C@H]3CCC(=O)N3)cc2Cl)cccc1-c1cccc(-c2ccn3c(=O)c(CNC[C@H]4CCC(=O)N4)ccc3c2)c1C [Example 28, 5-((4-Chloro-5-((2,2′-dimethyl-3′-(4-oxo-3-(((((R)-5-oxopyrrolidin-2-yl)methyl)amino)methyl)-4H-quinolizin-8-yl)-[1,1′-biphenyl]-3-yl)methoxy)-2-(((((R)-5-oxopyrrolidin-2-yl)methyl)amino)methyl)phenoxy)methyl)nicotinonitrile] | 0.7 nM |
| Cc1c(COc2cc(OCc3cncc(C#N)c3)c(CN3CC(C(=O)O)C3)cc2Cl)cccc1-c1cccc(-c2ccn3c(=O)c(CN4CC(C(=O)O)C4)ccc3c2)c1C [Example 29, 1-((8-(3′-((4-((3-Carboxyazetidin-1-yl)methyl)-2-chloro-5-((5-cyanopyridin-3-yl)methoxy)phenoxy)methyl)-2,2′-dimethyl-[1,1′-biphenyl]-3-yl)-4-oxo-4H-quinolizin-3-yl)methyl)azetidine-3-carboxylic acid] | 0.9 nM |
| Cc1c(COc2cc(OCc3cncc(C#N)c3)c(CN3CC[C@H](C(=O)O)C3)cc2Cl)cccc1-c1cccc(-c2ccc3c(c2)C(=O)N(C)CC(=O)N3CCN2CC[C@H](C(=O)O)C2)c1C [Example 30, (S)-1-(4-((3′-(1-(2-((S)-3-Carboxypyrrolidin-1-yl)ethyl)-4-methyl-2,5-dioxo-2,3,4,5-tetrahydro-1H-benzo[e][1,4]diazepin-7-yl)-2,2′-dimethyl-[1,1′-biphenyl]-3-yl)methoxy)-5-chloro-2-((5-cyanopyridin-3-yl)methoxy)benzyl)pyrrolidine-3-carboxylic acid] | 0.3 nM |
| COc1nc(-c2cccc(-c3cccc(-c4ccn5c(=O)c(CNC[C@@H]6CCC(=O)N6)cnc5c4)c3C)c2C)ccc1CNC[C@@H]1CCC(=O)N1 [Example 31, 8-(3′-(6-Methoxy-5-(((((S)-5-oxopyrrolidin-2-yl)methyl)amino)methyl)pyridin-2-yl)-2,2′-dimethyl-[1,1′-biphenyl]-3-yl)-3-(((((S)-5-oxopyrrolidin-2-yl)methyl)amino)methyl)-4H-pyrido[1,2-a]pyrimidin-4-one] | 2.3 nM |
| COc1nc(-c2cccc(-c3cccc(-c4ccn5c(=O)c(CNC[C@@H]6CCC(=O)N6)cnc5c4)c3C)c2Cl)ccc1CNC[C@@H]1CCC(=O)N1 [Example 32, 8-(2′-Chloro-3′-(6-methoxy-5-(((((S)-5-oxopyrrolidin-2-yl)methyl)amino)methyl)pyridin-2-yl)-2-methyl-[1,1′-biphenyl]-3-yl)-3-(((((S)-5-oxopyrrolidin-2-yl)methyl)amino)methyl)-4H-pyrido[1,2-a]pyrimidin-4-one] | 2.3 nM |
| COc1nc(-c2cccc(-c3cccc(-c4ccn5c(=O)c(CNC[C@@H]6CCC(=O)N6)cnc5c4)c3Cl)c2Cl)ccc1CNC[C@@H]1CCC(=O)N1 [Example 33, 8-(2,2′-Dichloro-3′-(6-methoxy-5-(((((S)-5-oxopyrrolidin-2-yl)methyl)amino)methyl)pyridin-2-yl)-[1,1′-biphenyl]-3-yl)-3-(((((S)-5-oxopyrrolidin-2-yl)methyl)amino)methyl)-4H-pyrido[1,2-a]pyrimidin-4-one] | 2.7 nM |
